PubChem BioAssay (NCI)
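Briefly, cells in 96-well plates were exposed to five compound concentrations for 48 h, and endpoints were estimated by linear interpolation. GI50 = concentration required for 50% inhibition of growth. TGI: total growth inhibition.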

Key:
Experiment in all cases: DTP human tumour cell line panel, 48 h
786-0 renal = system: 786-0 renal
A498 renal = system: A498 renal
A549 NSCLC = system: A549 NSCLC
ACHN renal = system: ACHN renal
BT-549 breast = system: BT-549 breast
CAKI-1 renal = system: CAKI-1 renal
CCRF-CEM leukemia = system: CCRF-CEM leukemia
DU-145 prostate = system: DU-145 prostate
EKVX NSCLC = system: EKVX NSCLC
HCC-2998 colon = system: HCC-2998 colon
HCT-116 colon = system: HCT-116 colon
HCT-15 colon = system: HCT-15 colon
HL-60(TB) leukemia = system: HL-60(TB) leukemia
HOP-92 NSCLC = system: HOP-92 NSCLC
HS 578T breast = system: HS 578T breast
HT29 colon = system: HT29 colon
IGROV1 ovarian = system: IGROV1 ovarian
K-562 leukemia = system: K-562 leukemia
KM12 colon = system: KM12 colon
LOX IMVI melanoma = system: LOX IMVI melanoma
M14 melanoma = system: M14 melanoma
MALME-3M melanoma = system: MALME-3M melanoma
MCF7 breast = system: MCF7 breast
MDA-MB-231 breast = system: MDA-MB-231 breast
MDA-MB-435 = system: MDA-MB-435
MOLT-4 leukemia = system: MOLT-4 leukemia
NCI-H226 lung = system: NCI-H226 lung
NCI-H23 lung = system: NCI-H23 lung
NCI-H460 lung = system: NCI-H460 lung
NCI-H522 lung = system: NCI-H522 lung
NCI/ADR-RES ovarian = system: NCI/ADR-RES ovarian
OVCAR-3 ovarian = system: OVCAR-3 ovarian
OVCAR-4 ovarian = system: OVCAR-4 ovarian
OVCAR-5 ovarian = system: OVCAR-5 ovarian
OVCAR-8 ovarian = system: OVCAR-8 ovarian
PC-3 prostate = system: PC-3 prostate
RPMI-8226 leukemia = system: RPMI-8226 leukemia
RXF 393 renal = system: RXF 393 renal
SF-268 CNS = system: SF-268 CNS
SF-295 CNS = system: SF-295 CNS
SF-539 CNS = system: SF-539 CNS
SK-MEL-2 melanoma = system: SK-MEL-2 melanoma
SK-MEL-28 melanoma = system: SK-MEL-28 melanoma
SK-MEL-5 melanoma = system: SK-MEL-5 melanoma
SK-OV-3 ovarian = system: SK-OV-3 ovarian
SN12C renal = system: SN12C renal
SNB-19 CNS = system: SNB-19 CNS
SNB-75 CNS = system: SNB-75 CNS
SR leukemia = system: SR leukemia
SW-620 colon = system: SW-620 colon
T-47D breast = system: T-47D breast
TK-10 renal = system: TK-10 renal
UACC-257 melanoma = system: UACC-257 melanoma
UACC-62 melanoma = system: UACC-62 melanoma
UO-31 renal = system: UO-31 renal

SMILES: OC(c1cc(-c2ccccc2)nc2ccc(Cl)cc12)C1CCCCN1 (stereo not given)
- GI50 (786-0 renal): 1.96 µM
- TGI (786-0 renal): 4.57 µM
- GI50 (A498 renal): 6.22 µM
- TGI (A498 renal): 20.3 µM
- GI50 (A549 NSCLC): 3.07 µM
- TGI (A549 NSCLC): 8.21 µM
- GI50 (ACHN renal): 1.64 µM
- TGI (ACHN renal): 3.21 µM
- GI50 (BT-549 breast): 5.82 µM
- TGI (BT-549 breast): 18.7 µM
- GI50 (CAKI-1 renal): 2.1 µM
- TGI (CAKI-1 renal): 5.9 µM
- GI50 (CCRF-CEM leukemia): 2.59 µM
- TGI (CCRF-CEM leukemia): 7.69 µM
- GI50 (DU-145 prostate): 3.07 µM
- TGI (DU-145 prostate): 8.74 µM
- GI50 (EKVX NSCLC): 2.36 µM
- TGI (EKVX NSCLC): 6.27 µM
- GI50 (HCC-2998 colon): 1.83 µM
- TGI (HCC-2998 colon): 3.34 µM
- GI50 (HCT-116 colon): 1.76 µM
- TGI (HCT-116 colon): 3.21 µM
- GI50 (HCT-15 colon): 1.84 µM
- TGI (HCT-15 colon): 3.53 µM
- GI50 (HL-60(TB) leukemia): 2.26 µM
- TGI (HL-60(TB) leukemia): 4.82 µM
- GI50 (HOP-92 NSCLC): 2.02 µM
- TGI (HOP-92 NSCLC): 6.87 µM
- GI50 (HS 578T breast): 3.37 µM
- TGI (HS 578T breast): 11.7 µM
- GI50 (HT29 colon): 2.96 µM
- TGI (HT29 colon): 6.57 µM
- GI50 (IGROV1 ovarian): 1.9 µM
- TGI (IGROV1 ovarian): 4.19 µM
- GI50 (K-562 leukemia): 2.54 µM
- TGI (K-562 leukemia): 7.01 µM
- GI50 (KM12 colon): 1.94 µM
- TGI (KM12 colon): 3.74 µM
- GI50 (LOX IMVI melanoma): 1.55 µM
- TGI (LOX IMVI melanoma): 2.91 µM
- GI50 (M14 melanoma): 1.87 µM
- TGI (M14 melanoma): 3.54 µM
- GI50 (MALME-3M melanoma): 1.99 µM
- TGI (MALME-3M melanoma): 3.88 µM
- GI50 (MCF7 breast): 1.67 µM
- TGI (MCF7 breast): 3.14 µM
- GI50 (MDA-MB-231 breast): 1.78 µM
- TGI (MDA-MB-231 breast): 3.94 µM
- GI50 (MDA-MB-435): 1.73 µM
- TGI (MDA-MB-435): 3.29 µM
- GI50 (MOLT-4 leukemia): 2.51 µM
- TGI (MOLT-4 leukemia): 6.2 µM
- GI50 (NCI-H226 lung): 2.19 µM
- TGI (NCI-H226 lung): 4.64 µM
- GI50 (NCI-H23 lung): 1.79 µM
- TGI (NCI-H23 lung): 3.42 µM
- GI50 (NCI-H460 lung): 1.89 µM
- TGI (NCI-H460 lung): 3.61 µM
- GI50 (NCI-H522 lung): 2.11 µM
- TGI (NCI-H522 lung): 4.53 µM
- GI50 (NCI/ADR-RES ovarian): 2.25 µM
- TGI (NCI/ADR-RES ovarian): 5.35 µM
- GI50 (OVCAR-3 ovarian): 2.15 µM
- TGI (OVCAR-3 ovarian): 5.15 µM
- GI50 (OVCAR-4 ovarian): 3.24 µM
- TGI (OVCAR-4 ovarian): 8.96 µM
- GI50 (OVCAR-5 ovarian): 1.84 µM
- TGI (OVCAR-5 ovarian): 4.3 µM
- GI50 (OVCAR-8 ovarian): 2.55 µM
- TGI (OVCAR-8 ovarian): 6.38 µM
- GI50 (PC-3 prostate): 2.21 µM
- TGI (PC-3 prostate): 4.79 µM
- GI50 (RPMI-8226 leukemia): 2.25 µM
- TGI (RPMI-8226 leukemia): 5.49 µM
- GI50 (RXF 393 renal): 2.01 µM
- TGI (RXF 393 renal): 3.84 µM
- GI50 (SF-268 CNS): 3.06 µM
- TGI (SF-268 CNS): 14 µM
- GI50 (SF-295 CNS): 1.9 µM
- TGI (SF-295 CNS): 3.55 µM
- GI50 (SF-539 CNS): 1.84 µM
- TGI (SF-539 CNS): 3.52 µM
- GI50 (SK-MEL-2 melanoma): 2.45 µM
- TGI (SK-MEL-2 melanoma): 5.02 µM
- GI50 (SK-MEL-28 melanoma): 1.77 µM
- TGI (SK-MEL-28 melanoma): 3.36 µM
- GI50 (SK-MEL-5 melanoma): 1.91 µM
- TGI (SK-MEL-5 melanoma): 3.47 µM
- GI50 (SK-OV-3 ovarian): 3.85 µM
- TGI (SK-OV-3 ovarian): 14.4 µM
- GI50 (SN12C renal): 3.14 µM
- TGI (SN12C renal): 10.6 µM
- GI50 (SNB-19 CNS): 1.99 µM
- TGI (SNB-19 CNS): 4.2 µM
- GI50 (SNB-75 CNS): 1.83 µM
- TGI (SNB-75 CNS): 5.74 µM
- GI50 (SR leukemia): 1.88 µM
- TGI (SR leukemia): 5.44 µM
- GI50 (SW-620 colon): 1.94 µM
- TGI (SW-620 colon): 3.69 µM
- GI50 (T-47D breast): 2.51 µM
- TGI (T-47D breast): 5.47 µM
- GI50 (TK-10 renal): 4.06 µM
- TGI (TK-10 renal): 16.2 µM
- GI50 (UACC-257 melanoma): 2.23 µM
- TGI (UACC-257 melanoma): 4.13 µM
- GI50 (UACC-62 melanoma): 1.88 µM
- TGI (UACC-62 melanoma): 3.68 µM
- GI50 (UO-31 renal): 1.73 µM
- TGI (UO-31 renal): 4.19 µM
